Test results: patent publication US8193200B2, “Antagonists of A2B adenosine receptors for treatment of inflammatory bowel disease” (University of Virginia Patent Foundation, priority 2007, dated 2012)

What was measured:
[1] = biological target: T1, A2b receptor (Homo sapiens, UniProt P29275); test: cAMP measurement in adenosine-stimulated T84 cells; assay type: cell-based; details: T84 monolayers, adenosine 100 μM, ATL-801 100 μM; unstimulated 1.7±0.05, adenosine alone 4.7±0.66
T1 construct: endogenous in cells; host or cells: T84 cells
T1 sequence (P29275 1-332): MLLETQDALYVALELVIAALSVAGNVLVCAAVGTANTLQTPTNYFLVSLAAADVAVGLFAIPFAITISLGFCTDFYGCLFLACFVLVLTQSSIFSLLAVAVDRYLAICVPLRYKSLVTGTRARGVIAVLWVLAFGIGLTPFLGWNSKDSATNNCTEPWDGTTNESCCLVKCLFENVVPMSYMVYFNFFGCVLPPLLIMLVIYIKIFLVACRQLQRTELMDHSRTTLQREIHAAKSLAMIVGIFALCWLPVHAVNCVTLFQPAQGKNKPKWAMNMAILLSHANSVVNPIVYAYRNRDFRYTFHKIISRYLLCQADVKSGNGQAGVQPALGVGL
Method: T84 cells were stimulated with adenosine (100 μM) or forskolin (10 μM) for 7 min, with or without ATL-801 (100 μM). Total cell lysates were processed in the presence of IBMX (phosphodiesterase inhibitor). cAMP levels were measured in whole cell lysates using a competitive cAMP immunoassay kit (Applied Biosystems, Bedford, Mass.) according to the manufacturer's instructions. Luminescence was read with a Luminoscan Ascent plate reader (Thermo Labsystems, Needham Heights, Mass.).

[2] = system: C57BL/6 mice with DSS-induced colitis; test: DSS-induced colitis: clinical and histological scoring, colon weight and length; assay type: in vivo, mouse; details: for Total Lesion Score (histological score): score range 0-11, DSS 9.1 ± 2.1
Method: Colitis was induced in male C57BL/6 mice by oral administration of DSS (molecular wt. 50000; ICN Biomedicals, Aurora, Ohio) at 3% (wt/vol) in tap water ad libitum for 6 days. Age-matched male wild-type C57BL6 mice receiving tap water served as controls. Mice were observed daily and evaluated for changes in body weight and development of clinical symptoms. Mice were given ATL-801 10 mg/Kg diet approximately 20 μg/day/mice) during the administration of DSS.
Assessment of body weights, stool consistency, and the presence of occult/gross blood by a guaic test (Hemoccult Sensa; Beckman Coulter, Fullerton, Calif.) were performed daily for each mouse. Colitis was quantified with a clinical and histological score, as described by Cooper, et. al. Clinical score was based on weight loss, stool consistency, and fecal blood (score range 0-12). Histological scoring was performed based on three variables, extent of inflammatory infiltrate, mucosal ulcers and severity of crypt (score range 0-11). IL-10^−/− mouse colon histological scoring (ranging from 0 to 4) was performed as described by Berg, et. al. to assess intestinal lesions and their severity.

Structure (SMILES): CCCn1c(=O)n(C2CC2)c(=O)c2[nH]c(-c3ccc(N(CC)C(=O)c4cccnc4)nc3)nc21 [ATL-801]
- adenosine mediated cAMP levels, adenosine+ATL-801 [1]: 0.2±0.06 pmoles/10^6 cells
- Ulceration (histological assessment) ([2]; 3% DSS 6 days + ATL 10 mg/Kg, DSS 2.6 ± 0.6): 1.0 ± 1
- Crypt Damage (histological assessment) ([2]; 3% DSS 6 days + ATL 10 mg/Kg, DSS 2.8 ± 1.5): 1.9 ± 0.6
- Inflammation (histological assessment) ([2]; 3% DSS 6 days + ATL 10 mg/Kg, DSS 3.7 ± 0.2): 1.2 ± 0.2
- Total Lesion Score (histological score) ([2]; 3% DSS 6 days + ATL 10 mg/Kg): 4.1 ± 1.8
- Total Lesion Score (histological score) ([2]; 3% DSS 6 days + ATL 10 mg/Kg, listed as antagonist): 4.1±1.8
- clinical score (clinical disease activity score) ([2]; DSS 3% 6 days + ATL-801 10 mg/Kg in diet, score range 0-12, DSS alone 9.4±1.1): 4.4±1.5
- colon length ([2]; DSS 6 days + antagonist 10 mg/Kg, DSS alone 4.5±0.26 cm): 6.04±0.16 cm
- colon weight ([2]; DSS + A2b antagonist, colon with solid stool pellets, DSS alone 0.26±0.03 g): 0.48 ± 0.03 g
- stool consistency ([2]; DSS + A2b receptor antagonist, DSS-fed mice had watery diarrhea): solid stools
- colon length, group not administered DSS ([2]; antagonist without DSS, vehicle 6.5±0.25): 7.5 cm
- adverse effects on clinical score, ATL-801 alone ([2]; mice given ATL-801 alone, no DSS): did not show any adverse affects on clinical score
- histological signs of inflammation, water control group receiving antagonist ([2]; no DSS): not detected
